Target: T1, recombinant mouse TRPC3b channels (Mus musculus, UniProt Q9QZC1, R524G)
T1 construct: Full length mouse TRPC3 transcripts were obtained by PCR; expressed in transfected cells; host or cells: HEK293 cells, stably transfected (pIRES-DsRed2 vector)
T1 sequence (Q9QZC1 75-910 R524G limits assumed): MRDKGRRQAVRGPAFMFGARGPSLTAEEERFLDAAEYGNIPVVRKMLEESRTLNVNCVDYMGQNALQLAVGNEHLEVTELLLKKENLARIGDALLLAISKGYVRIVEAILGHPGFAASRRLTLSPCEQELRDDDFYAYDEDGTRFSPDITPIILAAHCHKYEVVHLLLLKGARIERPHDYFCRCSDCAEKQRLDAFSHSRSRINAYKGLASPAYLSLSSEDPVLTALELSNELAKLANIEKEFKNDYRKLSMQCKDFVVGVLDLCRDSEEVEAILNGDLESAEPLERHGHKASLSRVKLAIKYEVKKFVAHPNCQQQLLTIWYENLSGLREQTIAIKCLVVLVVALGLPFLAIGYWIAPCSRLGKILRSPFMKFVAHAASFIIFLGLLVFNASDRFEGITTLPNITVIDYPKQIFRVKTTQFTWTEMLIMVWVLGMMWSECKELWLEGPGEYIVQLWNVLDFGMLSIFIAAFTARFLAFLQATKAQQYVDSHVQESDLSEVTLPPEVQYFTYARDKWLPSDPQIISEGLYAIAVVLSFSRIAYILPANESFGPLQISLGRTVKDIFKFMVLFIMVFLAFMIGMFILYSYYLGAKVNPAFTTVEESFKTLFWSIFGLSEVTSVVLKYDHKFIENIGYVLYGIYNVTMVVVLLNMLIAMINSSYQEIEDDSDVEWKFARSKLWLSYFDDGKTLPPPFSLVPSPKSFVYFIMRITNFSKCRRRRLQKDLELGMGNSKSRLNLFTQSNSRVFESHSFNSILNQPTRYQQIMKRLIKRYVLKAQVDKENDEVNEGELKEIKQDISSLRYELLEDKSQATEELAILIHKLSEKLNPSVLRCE
Assay: Whole-cell patch clamp of CCh-activated current, HEK293 cells expressing TRPC3b
Type: cell-based
Conditions: TRPC3b+CCh (100 μM)+genistein 200 μM pre-incubation; Vh=−50 mV; n=6; CCh alone −235.0±28.7 pA
Protocol: For whole cell patch clamp recordings, HEK293 cells stably expressing recombinant TRPC3 ion channels were grown to 85-95% confluence on a coverslip coated with poly-D-lysine and collagen (both from Sigma-Aldrich, U.S.A.). Recording pipettes were made from borosilicate glass (GC120TF-10, Harvard Apparatus, U.K.). The pipette resistance was at 3-6 MΩ (PC-10, Narishige, Japan). The internal solution had the composition: 130 mM CsCl, 2 mM MgCl2, 10 mM EGTA, 0.3 mM ATP, 0.03 mM GTP, pH at 7.3 adjusted with CsOH. Cells on the coverslip were placed in a microchamber on an inverted microscope (Leica DMIL, Germany) and superfused with HEPES-buffered physiological salt solution (HPSS) containing 120 mM NaCl, 5.4 mM KCl, 2 mM CaCl2, 1.13 mM MgCl2, 10 mM glucose, 20 mM HEPES (pH 7.4) at room temperature.
Whole cell patch clamp recordings were made following a gigaseal, using an Axopatch 200 patch clamp amplifier (Molecular Devices, U.S.A.) controlled by software (pClamp 10.2, Molecular Devices, U.S.A.). Cell capacitance was cancelled and series resistance was compensated by ˜90%. […] Carbachol (used to activate TRPC3 channels via the endogenously expressed M3 AChR) was purchased from Sigma-Aldrich (U.S.A.). DHPG (—(S)-2-amino-2-(3,5-dihydroxyphenyl)acetic acid), a group I mGluR agonist (Schoepp et al. 1994), was purchased from Tocris Bioscience (U.K.). […]

mean peak CCh-activated whole-cell inward current: −24.8±9.7 pA
Structure (SMILES): O=c1c(-c2ccc(O)cc2)coc2cc(O)cc(O)c12 [genistein, 4′, 5,7-trihydroxyisoflavone]
